In patent US20140206681A1, “BTK INHIBITORS” (priority 2013, published 2014):
pIC50: −log10 of the molar value.

Legend:
[1] = target: T1, BTK enzyme (recombinant full-length BTK, hBTK) (Homo sapiens, UniProt Q06187); test: BTK enzyme activity assay, LANCE TR-FRET; assay type: biochemical; details: 50 pM hBTK, 2 μM biotin-A5-peptide, 25 μM ATP; 60 min compound & enzyme incubation; read-out: IC50 BTK activity value
T1 construct: recombinant protein from baculovirus-transfected Sf9 cells: full-length BTK, 6HIS-tag cleaved; 6HIS (cleaved yes); made in house; host or cells: baculovirus-transfected Sf9 cells

HeLa cells = test: [3H]Adenosine uptake functional cellular assay; assay type: cell-based; details: Homo sapiens, HeLa, accumulation of [3H]adenosine into HeLa cells; compound range 10 μM to […]; read-out: Adenosine uptake inhibition IC50
Outline: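 Inhibition of adenosine uptake was measured in HeLa cells (ATCC CCL-2) by following accumulation of tritiated adenosine. Cells were kept overnight at 37° C. with 5% (v/v) CO2, then switched to 40 μL HBSS plus 5% (v/v) FBS. 20 μL of 500 nM [3H]adenosine was added, and uptake was counted on a Topcount NXT reader.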

T1 sequence (Q06187 whole entry): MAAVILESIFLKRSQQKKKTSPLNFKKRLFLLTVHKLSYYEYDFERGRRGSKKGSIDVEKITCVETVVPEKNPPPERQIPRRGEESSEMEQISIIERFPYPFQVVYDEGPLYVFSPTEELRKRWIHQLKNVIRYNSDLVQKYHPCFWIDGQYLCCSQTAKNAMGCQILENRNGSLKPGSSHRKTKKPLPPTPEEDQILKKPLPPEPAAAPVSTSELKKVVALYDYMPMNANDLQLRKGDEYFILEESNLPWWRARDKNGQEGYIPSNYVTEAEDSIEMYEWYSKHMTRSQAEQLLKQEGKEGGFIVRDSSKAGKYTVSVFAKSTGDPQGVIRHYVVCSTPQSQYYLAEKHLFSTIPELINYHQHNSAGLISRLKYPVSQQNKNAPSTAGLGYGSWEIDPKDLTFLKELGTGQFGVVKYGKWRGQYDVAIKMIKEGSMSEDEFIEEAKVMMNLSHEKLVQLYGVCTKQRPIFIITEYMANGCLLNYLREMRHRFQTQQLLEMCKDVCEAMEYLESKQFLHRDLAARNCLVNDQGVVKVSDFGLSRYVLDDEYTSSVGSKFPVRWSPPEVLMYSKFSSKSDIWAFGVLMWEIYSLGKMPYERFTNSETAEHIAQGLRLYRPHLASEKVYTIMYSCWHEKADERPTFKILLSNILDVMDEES

Structure (SMILES) | pIC50 [1] | pIC50 (HeLa cells)
CC(C)Oc1cc(C(=O)Nc2cc(C(F)(F)F)ccn2)ccc1-c1nc([C@@H]2CC[C@H]3CCC(=O)N3C2)n2ccnc(N)c12 [Example 139, 4-{8-amino-3-[(6R,8aS)-3-oxooctahydroindolizin-6-yl]imidazo[1,5-a]pyrazin-1-yl}-3-(1-methylethoxy)-N-[4-(trifluoromethyl)pyridin-2-yl]benzamide] | 8.24 | 5.89
Nc1nccn2c([C@@H]3CC[C@H]4CCC(=O)N4C3)nc(-c3ccc(C(=O)Nc4cc(C(F)(F)F)ccn4)cc3OC3CCC3)c12 [Example 140, 4-{8-amino-3-[(6R,8aS)-3-oxooctahydroindolizin-6-yl]imidazo[1,5-a]pyrazin-1-yl}-3-(cyclobutyloxy)-N-[4-(trifluoromethyl)pyridin-2-yl]benzamide] | 8.34 | 6.12
CC(C)(C)COc1cc(C(=O)Nc2cc(C(F)(F)F)ccn2)ccc1-c1nc([C@@H]2CC[C@H]3CCC(=O)N3C2)n2ccnc(N)c12 [Example 142, 4-{8-amino-3-[(6R,8aS)-3-oxooctahydroindolizin-6-yl]imidazo[1,5-a]pyrazin-1-yl}-3-(2,2-dimethylpropoxy)-N-[4-(trifluoromethyl)pyridin-2-yl]benzamide] | 7.76 | 5.93
Cn1nc(NC(=O)c2ccc(-c3nc([C@@H]4CC[C@H]5CCC(=O)N5C4)n4c(Cl)cnc(N)c34)c(OC3CC3)c2)cc1C(F)(F)F [Example 145, 4-{8-amino-5-chloro-3-[(6R,8aS)-3-oxooctahydroindolizin-6-yl]imidazo[1,5-a]pyrazin-1-yl}-3-(cyclopropyloxy)-N-[1-methyl-5-(trifluoromethyl)-1H-pyrazol-3-yl]benzamide] | 9.36 | 5.62
Cn1nc(NC(=O)c2cc(OC3CC3)c(-c3nc([C@@H]4CC[C@H]5CCC(=O)N5C4)n4c(Cl)cnc(N)c34)cc2F)cc1C(F)(F)F [Example 150, 4-{8-amino-5-chloro-3-[(6R,8aS)-3-oxooctahydroindolizin-6-yl]imidazo[1,5-a]pyrazin-1-yl}-5-(cyclopropyloxy)-2-fluoro-N-[1-methyl-5-(trifluoromethyl)-1H-pyrazol-3-yl]benzamide] | 8.74 | 5.64
CCOc1cc(C(=O)Nc2cc(C(F)(F)F)ccn2)c(F)cc1-c1nc([C@@H]2CC[C@H]3CCC(=O)N3C2)n2ccnc(N)c12 [Example 151, 4-{8-amino-3-[(6R,8aS)-3-oxooctahydroindolizin-6-yl]imidazo[1,5-a]pyrazin-1-yl}-5-ethoxy-2-fluoro-N-[4-(trifluoromethyl)pyridin-2-yl]benzamide] | 9.12 | 5.95
CCOc1cc(C(=O)Nc2cc(C(F)(F)F)n(C)n2)c(F)cc1-c1nc([C@@H]2CC[C@H]3CCC(=O)N3C2)n2ccnc(N)c12 [Example 152, 4-{8-amino-3-[(6R,8aS)-3-oxooctahydroindolizin-6-yl]imidazo[1,5-a]pyrazin-1-yl}-5-ethoxy-2-fluoro-N-[1-methyl-5-(trifluoromethyl)-1H-pyrazol-3-yl]benzamide] | 8.89 | 5.72
Nc1ncc(Cl)n2c([C@@H]3CC[C@H]4CCC(=O)N4C3)nc(-c3ccc(C(=O)Nc4cc(C(F)(F)F)ccn4)cc3)c12 [Example 153, 4-{8-amino-5-chloro-3-[(6R,8aS)-3-oxooctahydroindolizin-6-yl]imidazo[1,5-a]pyrazin-1-yl}-N-[4-(trifluoromethyl)pyridin-2-yl]benzamide] | 9.80 | 6.30
CCOc1cc(C(=O)Nc2ncc(C)s2)ccc1-c1nc([C@@H]2CC[C@H]3CCC(=O)N3C2)n2ccnc(N)c12 [Example 159, 4-{8-amino-3-[(6R,8aS)-3-oxooctahydroindolizin-6-yl]imidazo[1,5-a]pyrazin-1-yl}-3-ethoxy-N-(5-methyl-1,3-thiazol-2-yl)benzamide] | 9.20 | 5.91
CCOc1cc(C(=O)Nc2cc(C(F)(F)F)ccn2)ccc1-c1nc([C@@H]2CC[C@H]3CCC(=O)N3C2)n2c(F)cnc(N)c12 [Example 161, 4-{8-amino-5-fluoro-3-[(6R,8aS)-3-oxooctahydroindolizin-6-yl]imidazo[1,5-a]pyrazin-1-yl}-3-ethoxy-N-[4-(trifluoromethyl)pyridin-2-yl]benzamide] | 9.00 | 5.81

More lines, now with the values ahead:

pIC50 [1] | pIC50 (HeLa cells) | Structure (SMILES)
6.87 | 5.86 | Nc1nccn2c([C@@H]3CC[C@H]4CCC(=O)N4C3)nc(-c3ccc(C(=O)Nc4cc(C(F)(F)F)ccn4)cc3OC3CCCCC3)c12 [Example 138, 4-{8-amino-3-[(6R,8aS)-3-oxooctahydroindolizin-6-yl]imidazo[1,5-a]pyrazin-1-yl}-3-(cyclohexyloxy)-N-[4-(trifluoromethyl)pyridin-2-yl]benzamide]
7.63 | 6.08 | Nc1nccn2c([C@@H]3CC[C@H]4CCC(=O)N4C3)nc(-c3ccc(C(=O)Nc4cc(C(F)(F)F)ccn4)cc3OC3CCCC3)c12 [Example 141, 4-{8-amino-3-[(6R,8aS)-3-oxooctahydroindolizin-6-yl]imidazo[1,5-a]pyrazin-1-yl}-3-(cyclopentyloxy)-N-[4-(trifluoromethyl)pyridin-2-yl]benzamide]
9.23 | 5.30 | Cn1nc(NC(=O)c2ccc(-c3nc([C@@H]4CC[C@H]5CCC(=O)N5C4)n4ccnc(N)c34)c(OC3CC3)c2)cc1C(F)(F)F [Example 146, 4-{8-amino-3-[(6R,8aS)-3-oxooctahydroindolizin-6-yl]imidazo[1,5-a]pyrazin-1-yl}-3-(cyclopropyloxy)-N-[1-methyl-5-(trifluoromethyl)-1H-pyrazol-3-yl]benzamide]
9.12 | 6.02 | Nc1ncc(Cl)n2c([C@@H]3CC[C@H]4CCC(=O)N4C3)nc(-c3ccc(C(=O)Nc4cc(C5CC5)ccn4)cc3OC3CC3)c12 [Example 147, 4-{8-amino-5-chloro-3-[(6R,8aS)-3-oxooctahydroindolizin-6-yl]imidazo[1,5-a]pyrazin-1-yl}-3-(cyclopropyloxy)-N-(4-cyclopropylpyridin-2-yl)benzamide]
8.85 | 5.97 | Nc1nccn2c([C@@H]3CC[C@H]4CCC(=O)N4C3)nc(-c3ccc(C(=O)Nc4cc(C5CC5)ccn4)cc3OC3CC3)c12 [Example 148, 4-{8-amino-3-[(6R,8aS)-3-oxooctahydroindolizin-6-yl]imidazo[1,5-a]pyrazin-1-yl}-3-(cyclopropyloxy)-N-(4-cyclopropylpyridin-2-yl)benzamide]
7.01 | ≤ 5.00 | Cn1nc(NC(=O)c2ccc(-c3nc([C@@H]4CC[C@H]5CCC(=O)N5C4)n4ccnc(N)c34)c(OC3CNC3)c2)cc1C(F)(F)F [Example 149, 4-{8-amino-3-[(6R,8aS)-3-oxooctahydroindolizin-6-yl]imidazo[1,5-a]pyrazin-1-yl}-3-(azetidin-3-yloxy)-N-[1-methyl-5-(trifluoromethyl)-1H-pyrazol-3-yl]benzamide]
8.41 | 5.82 | CC(=O)Oc1cc(C(=O)Nc2cc(C(F)(F)F)ccn2)ccc1-c1nc([C@@H]2CC[C@H]3CCC(=O)N3C2)n2ccnc(N)c12 [Example 155, 2-{8-amino-3-[(6R,8aS)-3-oxooctahydroindolizin-6-yl]imidazo[1,5-a]pyrazin-1-yl}-5-{[4-(trifluoromethyl)pyridin-2-yl]carbamoyl}phenyl acetate]
8.36 | 5.76 | CC(=O)Nc1nccn2c([C@@H]3CC[C@H]4CCC(=O)N4C3)nc(-c3ccc(C(=O)Nc4cc(C(F)(F)F)ccn4)cc3O)c12 [Example 156, 4-{8-(acetylamino)-3-[(6R,8aS)-3-oxooctahydroindolizin-6-yl]imidazo[1,5-a]pyrazin-1-yl}-3-hydroxy-N-[4-(trifluoromethyl)pyridin-2-yl]benzamide]
6.54 | 5.75 | COCCN(C(=O)c1ccc(-c2nc([C@@H]3CC[C@H]4CCC(=O)N4C3)n3ccnc(N)c23)c(O)c1)c1cc(C(F)(F)F)ccn1 [Example 157, 4-{8-amino-3-[(6R,8aS)-3-oxooctahydroindolizin-6-yl]imidazo[1,5-a]pyrazin-1-yl}-3-hydroxy-N-(2-methoxyethyl)-N-[4-(trifluoromethyl)pyridin-2-yl]benzamide]
9.35 | 5.68 | CCOc1cc(C(=O)Nc2ncc(C)s2)ccc1-c1nc([C@@H]2CC[C@H]3CCC(=O)N3C2)n2c(Cl)cnc(N)c12 [Example 158, 4-{8-amino-5-chloro-3-[(6R,8aS)-3-oxooctahydroindolizin-6-yl]imidazo[1,5-a]pyrazin-1-yl}-3-ethoxy-N-(5-methyl-1,3-thiazol-2-yl)benzamide]
9.55 | 6.54 | Nc1ncc(F)n2c([C@@H]3CC[C@H]4CCC(=O)N4C3)nc(-c3ccc(C(=O)Nc4cc(C(F)(F)F)ccn4)cc3)c12 [Example 160, 4-{8-amino-5-fluoro-3-[(6R,8aS)-3-oxooctahydroindolizin-6-yl]imidazo[1,5-a]pyrazin-1-yl}-N-[4-(trifluoromethyl)pyridin-2-yl]benzamide]
8.89 | 5.81 | COc1cc(C(=O)Nc2cc(C(F)(F)F)ccn2)ccc1-c1nc([C@@H]2CC[C@H]3CCC(=O)N3C2)n2c(F)cnc(N)c12 [Example 162, 4-{8-amino-5-fluoro-3-[(6R,8aS)-3-oxooctahydroindolizin-6-yl]imidazo[1,5-a]pyrazin-1-yl}-3-methoxy-N-[4-(trifluoromethyl)pyridin-2-yl]benzamide]
